Results published in article PMC8951040, “Determination of Flavonoids in Selected Scleranthus Species and Their Anti-Collagenase and Antioxidant Potential” (Molecules, 2022).
Several values for one entry are separate records, joined by “and”; a condition that tells them apart may be missing. Equal values may be shown once.

Tests used:
[1] = DPPH radical scavenging assay; conditions: 30 min incubation, absorbance 517 nm; mean ± SD, triplicate
Procedure: Individual test compounds and extracts in methanol (130 µL) were added to 70 µL of a solution of DPPH (2,2-diphenyl-1-picrylhydrazyl). After 30 min of incubation, the absorbance was evaluated at 517 nm. The determination was performed in triplicate and corrected to a blank sample (pure methanol). The radical scavenging activity of the tested samples was expressed as Trolox equivalents, calculated from the standard curve.

[2] = ABTS radical cation assay (antioxidant assay kit CS0790); conditions: 5 min incubation, absorbance 405 nm; mean ± SD, triplicate
Procedure: Suppression of the production of the radical cation was measured using an antioxidant assay kit (CS0790). In brief, 10 µL of the test sample, 20 µL of myoglobin working solution, and 150 µL of ABTS working solution (containing ABTS substrate solution and 3% hydrogen peroxide) were mixed into a clear, flat-bottom 96-well plate. After 5 min of incubation, 100 µL of stop solution was added and absorbance was measured at 405 nm. The antioxidant concentration of tested samples was calculated using the equation obtained through linear regression of the Trolox standard curve.

[3] = CUPRAC assay (antioxidant assay kit MAK334); conditions: 10 min incubation, absorbance 570 nm; mean ± SD, triplicate
Procedure: The reducing power of copper ions was evaluated using an antioxidant assay kit (MAK334). Briefly, 20 µL of sample and 100 µL of reaction mix were added into separate wells in a 96-well plate. After 10 min of incubation, the absorbance endpoint was measured at 570 nm. Total antioxidant capacity was determined using a standard curve evaluated for Trolox.

[4] = molecular target: collagenase from Clostridium histolyticum; assay: Anti-collagenase assay (FALGPA substrate); type: biochemical; conditions: 20 min at 37 °C, absorbance 335 nm, mean ± SD, triplicate
Procedure: The potential anti-collagenase activity was assessed as previously described. In short, a solution including 25 µL of collagenase from Clostridium histolyticum, 25 µL of Tricine buffer, and 25 µL of various levels of the extracts (SP1–SP6, SA1–SA6) or compounds (6–9) were incubated at 37 °C. After 20 min, 75 µL of FALGPA was added. Then, absorbance was measured at 335 nm. The experiment was performed in 50 mM Tris buffer. The blank was evaluated using Tricine buffer, instead of sample, and the positive control was epigallocatechin gallate (EGCG). All measurements were conducted in triplicate and the IC50 for each sample was calculated. The percentage of collagenase inhibitory activity (CoInh) was calculated as follows:Enzyme inhibition activity (%) = [1 − (B/S)] × 100%, where B is the blank and S is the sample.

[5] = FRAP ferric reducing antioxidant power assay kit; conditions: 1 h at 37 °C, absorbance 594 nm; mean ± SD, triplicate
Procedure: The […] of the investigated substances toward ferrous ions was assessed using a ferric reducing antioxidant power assay kit. Briefly, 10 µL of each sample (SP1–SP6, SA1–SA6, 1–9) was mixed with 190 µL of supplied reaction mix (containing FRAP Assay Buffer, FeCl3 solution, and FRAP Probe). After 1 h of incubation at 37 °C, the absorbance was measured at 594 nm. A blank solution containing 10 µL of MeOH instead of extract/compound solution was used. For further calculations, the ferrous standard curve was evaluated. Values are given as mM Ferrous equivalents. All tests were performed in triplicate.

COc1ccc(C(C)=O)c(O[C@@H]2O[C@H](CO[C@@H]3OC[C@](O)(CO)[C@H]3O)[C@@H](O)[C@H](O)[C@H]2O)c1 [Compound 5, Apiopaeonoside]
DPPH (radical scavenging activity, Trolox equivalents) [1]: 61.96 ± 1.90 µM Teq | ABTS (radical scavenging activity, Trolox equivalents) [2]: 444.23 ± 0.47 µM Teq | CUPRAC (Trolox equivalents) [3]: 48.46 ± 1.75 µM Teq

COc1cc(-c2cc(=O)c3c(O)cc(O)c(C4OCC(O)C(O)C4OC4OC(CO)C(OC(C)=O)C(O)C4O)c3o2)ccc1OC(C)=O [Compound 6, 5,7-dihydroxy-3′-methoxy-4′-acetoxyflavone-8-C-β-D-arabinopyranoside-2″-O-(4‴-acetoxy)-glucoside]
DPPH (radical scavenging activity, Trolox equivalents) [1]: 6.69 ± 0.97 µM Teq | IC50 [4]: 39.6 ± 1.21 µM | melting point: 187 to 188 °C | ABTS (radical scavenging activity, Trolox equivalents) [2]: 169.27 ± 1.68 µM Teq | CUPRAC (Trolox equivalents) [3]: 18.57 µM Teq and 18.57 ± 0.76 µM Teq

O=c1cc(-c2ccc(O)c(O)c2)oc2c(C3OC(CO)C(O)C(O)C3O)c(O)c(C3OCC(O)C(O)C3O)c(O)c12 [Compound 7, 5,7,3′,4′-tetrahydroxyflavone-6-C-xyloside-8-C-β-D-glucoside]
DPPH (radical scavenging activity, Trolox equivalents) [1]: 409.16 ± 2.03 µM Teq | IC50 [4]: 73.9 ± 1.03 µM | ABTS (radical scavenging activity, Trolox equivalents) [2]: 796.61 ± 1.23 µM Teq | CUPRAC (Trolox equivalents) [3]: 116.16 µM Teq and 116.16 ± 0.76 µM Teq

O=c1cc(-c2cccc(O)c2)oc2c(C3OC(CO)C(O)C(O)C3O)c(O)c(C3OC(CO)C(O)C(O)C3O)c(O)c12 [Compound 8, 5,7,3′-trihydroxyflavone-6-C-glucoside-8-C-β-D-glucoside]
DPPH (radical scavenging activity, Trolox equivalents) [1]: 176.71 ± 0.97 µM Teq | IC50 [4]: 53.4 ± 0.88 µM | FRAP (Fe2+ equivalents) [5]: 5.16 ± 0.96 mM Fe2+ equivalents | ABTS (radical scavenging activity, Trolox equivalents) [2]: 369.24 ± 3.05 µM Teq | CUPRAC (Trolox equivalents) [3]: 27.15 ± 1.32 µM Teq

COc1cc(-c2cc(=O)c3c(O)c(C4OC(CO)C(O)C(O)C4O)c(O)c(C4OCC(O)C(O)C4O)c3o2)ccc1O [Compound 9, 5,7,4′-trihydroxy-3′-methoxyflavone-6-C-β-D-glucopyranoside-8-C-α-arabinopyranoside]
DPPH (radical scavenging activity, Trolox equivalents) [1]: 407.05 ± 1.83 µM Teq | IC50 [4]: 71.1 ± 0.97 µM | FRAP (Fe2+ equivalents) [5]: 9.07 ± 0.45 mM Fe2+ equivalents | ABTS (radical scavenging activity, Trolox equivalents) [2]: 586.69 ± 2.91 µM Teq | CUPRAC (Trolox equivalents) [3]: 18.20 ± 0.76 µM Teq

O=C(O[C@@H]1Cc2c(O)cc(O)cc2O[C@@H]1c1cc(O)c(O)c(O)c1)c1cc(O)c(O)c(O)c1 [EGCG, epigallocatechin gallate, reference compound]
IC50 [4]: 34.8 ± 0.53 µM

scleranthoside A [Compound 1]
DPPH (radical scavenging activity, Trolox equivalents) [1]: 405.15 ± 3.12 µM Teq | ABTS (radical scavenging activity, Trolox equivalents) [2]: 765.16 ± 2.83 µM Teq | CUPRAC (Trolox equivalents) [3]: 581.32 µM Teq and 581.32 ± 3.61 µM Teq

scleranthoside B [Compound 2]
DPPH (radical scavenging activity, Trolox equivalents) [1]: 198.43 ± 2.40 µM Teq | FRAP (Fe2+ equivalents) [5]: 5.68 ± 0.68 mM Fe2+ equivalents | ABTS (radical scavenging activity, Trolox equivalents) [2]: 188.57 ± 1.86 µM Teq | CUPRAC (Trolox equivalents) [3]: 114.56 ± 2.04 µM Teq

scleranthoside C [Compound 3]
DPPH (radical scavenging activity, Trolox equivalents) [1]: 7.11 ± 0.59 µM Teq | ABTS (radical scavenging activity, Trolox equivalents) [2]: 198.57 ± 2.46 µM Teq | CUPRAC (Trolox equivalents) [3]: 67.30 µM Teq and 67.30 ± 1.30 µM Teq

scleranthoside D [Compound 4]
DPPH (radical scavenging activity, Trolox equivalents) [1]: 9.64 ± 0.82 µM Teq | FRAP (Fe2+ equivalents) [5]: 2.65 ± 0.47 mM Fe2+ equivalents | ABTS (radical scavenging activity, Trolox equivalents) [2]: 302.05 ± 2.42 µM Teq | CUPRAC (Trolox equivalents) [3]: 44.22 ± 1.35 µM Teq
